Results taken from PubChem BioAssay (NCI).
Values joined by “and” are separate entries in the source; they are usually repeats but may differ in a detail not shown here. Identical values can stand only once.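 The compound was tested at five concentrations on cells cultured in 96-well plates, with a 48-hour exposure period. Abbreviation: GI50, concentration required for 50% inhibition of growth. TGI marks complete inhibition of growth.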

Assays:
Assay in all cases: NCI-60 cell line screen, 48 h
[1] = tested on: UACC-257 melanoma
[2] = tested on: HOP-92 NSCLC
[3] = tested on: OVCAR-3 ovarian
[4] = tested on: M14 melanoma
[5] = tested on: SF-295 CNS
[6] = tested on: HT29 colon
[7] = tested on: CAKI-1 renal
[8] = tested on: SR leukemia
[9] = tested on: SK-MEL-5 melanoma
[10] = tested on: SK-OV-3 ovarian
[11] = tested on: SNB-19 CNS
[12] = tested on: IGROV1 ovarian
[13] = tested on: RXF 393 renal
[14] = tested on: A498 renal
[15] = tested on: SN12C renal
[16] = tested on: SF-539 CNS
[17] = tested on: T-47D breast
[18] = tested on: MCF7 breast
[19] = tested on: OVCAR-4 ovarian
[20] = tested on: DU-145 prostate
[21] = tested on: LOX IMVI melanoma
[22] = tested on: SNB-75 CNS
[23] = tested on: 786-0 renal
[24] = tested on: MDA-MB-231 breast
[25] = tested on: HL-60(TB) leukemia
[26] = tested on: HOP-62 NSCLC
[27] = tested on: NCI-H460 lung
[28] = tested on: MDA-MB-435
[29] = tested on: TK-10 renal
[30] = tested on: MOLT-4 leukemia
[31] = tested on: EKVX NSCLC
[32] = tested on: SW-620 colon
[33] = tested on: OVCAR-8 ovarian
[34] = tested on: HCC-2998 colon
[35] = tested on: RPMI-8226 leukemia
[36] = tested on: KM12 colon
[37] = tested on: COLO 205 colon
[38] = tested on: PC-3 prostate
[39] = tested on: BT-549 breast
[40] = tested on: NCI/ADR-RES ovarian
[41] = tested on: SF-268 CNS
[42] = tested on: UO-31 renal
[43] = tested on: ACHN renal
[44] = tested on: UACC-62 melanoma
[45] = tested on: HCT-15 colon
[46] = tested on: NCI-H226 lung
[47] = tested on: A549 NSCLC
[48] = tested on: CCRF-CEM leukemia
[49] = tested on: HCT-116 colon
[50] = tested on: OVCAR-5 ovarian
[51] = tested on: SK-MEL-2 melanoma
[52] = tested on: K-562 leukemia
[53] = tested on: NCI-H522 lung
[54] = tested on: U251 CNS
[55] = tested on: NCI-H23 lung
[56] = tested on: HS 578T breast
[57] = tested on: MALME-3M melanoma
[58] = tested on: SK-MEL-28 melanoma

O=C(CCCCCCCCC(=O)N/N=C\c1cc(Cl)ccc1O)N/N=C\c1cc(Cl)ccc1O
GI50 [1]: 0.306 µM | GI50 [2]: 0.105 µM | TGI [2]: 37.5 µM | GI50 [3]: 0.311 µM | TGI [3]: > 100 µM | GI50 [4]: 0.221 µM | TGI [4]: 8.69 µM | GI50 [5]: 1.11 µM | TGI [5]: > 46.5 µM | GI50 [6]: > 25.5 µM | TGI [6]: > 100 µM | GI50 [7]: 0.251 µM | TGI [7]: > 100 µM | GI50 [8]: 0.0955 µM | TGI [8]: 16.7 µM | GI50 [9]: 0.161 µM | TGI [9]: 0.659 µM | GI50 [10]: 0.685 µM | TGI [10]: 79.9 µM | GI50 [11]: 0.813 µM | TGI [11]: > 100 µM | GI50 [12]: 0.83 µM | TGI [12]: > 100 µM | GI50 [13]: 0.208 µM | TGI [13]: 7.78 µM | GI50 [14]: > 33.1 µM | TGI [14]: > 80.9 µM | GI50 [15]: 0.427 µM | TGI [15]: > 100 µM | GI50 [16]: 0.339 µM | TGI [16]: > 46.8 µM | GI50 [17]: 1.48 µM | TGI [17]: > 100 µM | GI50 [18]: 0.364 µM | TGI [18]: > 100 µM | GI50 [19]: 0.315 µM | TGI [19]: > 100 µM | GI50 [20]: 0.495 µM | TGI [20]: > 100 µM | GI50 [21]: 0.149 µM | TGI [21]: 7.41 µM | GI50 [22]: 15.6 µM | TGI [22]: > 65.9 µM | GI50 [23]: 0.287 µM | TGI [23]: 15.5 µM | GI50 [24]: 0.265 µM | TGI [24]: > 82.6 µM | GI50 [25]: 0.164 µM | TGI [25]: 0.571 µM | GI50 [26]: 0.284 µM | TGI [26]: > 100 µM | GI50 [27]: 0.162 µM | TGI [27]: 19.6 µM | GI50 [28]: 0.625 µM | TGI [28]: > 100 µM | GI50 [29]: 3.89 µM | TGI [29]: > 75.5 µM | GI50 [30]: 0.222 µM | TGI [30]: 17.6 µM | GI50 [31]: 3.49 µM | TGI [31]: > 100 µM | GI50 [32]: 0.916 µM | TGI [32]: > 100 µM | GI50 [33]: 0.231 µM | TGI [33]: 28.9 µM | GI50 [34]: 3.32 µM | TGI [34]: > 100 µM | GI50 [35]: 0.847 µM | TGI [35]: > 100 µM | GI50 [36]: 0.594 µM | TGI [36]: > 100 µM | GI50 [37]: 3.19 µM | TGI [37]: > 100 µM | GI50 [38]: 0.864 µM | TGI [38]: > 100 µM | GI50 [39]: 0.526 µM | TGI [39]: 96.8 µM | GI50 [40]: 0.294 µM | GI50 [41]: 0.223 µM | TGI [41]: > 100 µM | GI50 [42]: 0.152 µM | TGI [42]: > 100 µM | GI50 [43]: 0.175 µM | TGI [43]: > 100 µM | GI50 [44]: 0.235 µM | GI50 [45]: 0.251 µM | TGI [45]: > 100 µM | GI50 [46]: 0.5 µM | TGI [46]: > 36.2 µM | GI50 [47]: 0.98 µM | TGI [47]: > 100 µM | GI50 [48]: 0.172 µM | TGI [48]: 24.6 µM | GI50 [49]: 0.308 µM | TGI [49]: > 100 µM | GI50 [50]: 7.99 µM | TGI [50]: > 100 µM | GI50 [51]: 0.441 µM | TGI [51]: 18.9 µM | GI50 [52]: 0.38 µM | TGI [52]: 10.2 µM | GI50 [53]: 0.31 µM | TGI [53]: > 100 µM | GI50 [54]: 0.192 µM | TGI [54]: 25.9 µM | GI50 [55]: 0.636 µM | TGI [55]: > 67.3 µM | GI50 [56]: 16.4 µM | TGI [56]: > 100 µM | GI50 [57]: 0.462 µM | TGI [57]: > 100 µM | GI50 [58]: 2.64 µM | TGI [58]: > 100 µM

Cn1cc(-c2nc(N[C@@H]3CCCC[C@@H]3N)c(F)c3c2C(=O)NC3)cn1
GI50 [1]: 19.4 µM and 23.9 µM | TGI [1]: 98.6 µM and > 88.5 µM | GI50 [2]: 3.62 µM and 4.47 µM | TGI [2]: 23.9 µM and 29.1 µM | GI50 [3]: 15.1 µM and 15.6 µM | TGI [3]: 42.1 µM and 38.7 µM | GI50 [4]: 1.56 µM and 1.67 µM | TGI [4]: > 96.1 µM | GI50 [5]: 3.95 µM and 3.5 µM | TGI [5]: > 77.2 µM | GI50 [6]: 4.33 µM and 5.99 µM | TGI [6]: 81.5 µM and > 94.4 µM | GI50 [8]: 2.26 µM and 2.92 µM | TGI [8]: 31.9 µM and 36 µM | GI50 [9]: 29.2 µM and 22.6 µM | TGI [9]: > 100 µM | GI50 [10]: 4.06 µM and 3.77 µM | TGI [10]: 40.1 µM and 43.8 µM | GI50 [11]: 27.3 µM and 29 µM | TGI [11]: > 100 µM | GI50 [12]: 5 µM and 5.65 µM | TGI [12]: > 68.9 µM | GI50 [13]: 1.99 µM and 2.47 µM | TGI [13]: 10.5 µM and 12.5 µM | GI50 [14]: 1.72 µM and 2.45 µM | TGI [14]: 8.43 µM and 11.3 µM | GI50 [15]: 3.61 µM and 3.8 µM | TGI [15]: > 100 µM | GI50 [16]: 2.81 µM and 3.16 µM | TGI [16]: 13.9 µM and 16.1 µM | GI50 [17]: 24.8 µM and 33.7 µM | TGI [17]: 77.3 µM and > 96.6 µM | GI50 [18]: 5.81 µM and 6.21 µM | TGI [18]: > 100 µM | GI50 [19]: 15.4 µM and 19.6 µM | TGI [19]: > 100 µM | GI50 [20]: 11.5 µM and 14.4 µM | TGI [20]: > 100 µM | GI50 [21]: 2.95 µM and 3.81 µM | TGI [21]: 14.1 µM and 16.2 µM | GI50 [22]: 2.14 µM and 2.87 µM | TGI [22]: 11.7 µM and 16.5 µM | GI50 [23]: 3.99 µM and 6.36 µM | TGI [23]: 22.1 µM and > 52.4 µM | GI50 [24]: 5.04 µM and 6.15 µM | TGI [24]: 26.2 µM and 31.9 µM | GI50 [25]: 9.21 µM and 11.2 µM | TGI [25]: 37 µM and 40.9 µM | GI50 [26]: 3.37 µM and 3.32 µM | TGI [26]: 29.7 µM and 30.5 µM | GI50 [27]: 5.87 µM and 6.08 µM | TGI [27]: 63.2 µM and > 100 µM | GI50 [28]: 5.64 µM and 7.4 µM | TGI [28]: > 100 µM | GI50 [29]: 4.5 µM and 6.16 µM | TGI [29]: 25.3 µM and 40.6 µM | GI50 [30]: 4.74 µM and 6.87 µM | TGI [30]: > 80.2 µM and 98.9 µM | GI50 [31]: 14.3 µM and 20.1 µM | TGI [31]: > 100 µM | GI50 [32]: 4.26 µM and 5 µM | TGI [32]: > 100 µM | GI50 [33]: 10.8 µM and 12.4 µM | TGI [33]: 66.1 µM and > 75.3 µM | GI50 [34]: 26.6 µM and 28.2 µM | TGI [34]: > 100 µM | GI50 [35]: 26.2 µM and 29.1 µM | TGI [35]: > 100 µM | GI50 [36]: 0.458 µM and 0.452 µM | TGI [36]: > 100 µM | GI50 [37]: 1.41 µM and 1.63 µM | TGI [37]: 3.99 µM and 4.13 µM | GI50 [38]: 9.43 µM and 13.3 µM | TGI [38]: > 100 µM | GI50 [39]: 6.47 µM and 10 µM | TGI [39]: 21.3 µM and 29.7 µM | GI50 [40]: > 100 µM | TGI [40]: > 100 µM | GI50 [41]: 5.42 µM and 6.7 µM | TGI [41]: > 100 µM | GI50 [42]: 5.74 µM and 7.49 µM | TGI [42]: 19.7 µM and 21.1 µM | GI50 [43]: 3.08 µM and 4.65 µM | TGI [43]: > 100 µM | GI50 [44]: 10.4 µM and 13.1 µM | TGI [44]: > 100 µM | GI50 [45]: 12 µM and 13.3 µM | TGI [45]: > 100 µM | GI50 [46]: 2.93 µM and 3.83 µM | TGI [46]: 23.9 µM and 49.7 µM | GI50 [47]: 6.47 µM and 9.22 µM | TGI [47]: 75.5 µM and 81.1 µM | GI50 [48]: 5.09 µM and 5.26 µM | TGI [48]: > 100 µM | GI50 [49]: 3.66 µM and 4.67 µM | TGI [49]: 47.7 µM and > 83.3 µM | GI50 [50]: 7.14 µM and 8.43 µM | TGI [50]: > 100 µM | GI50 [51]: 20.5 µM and 24.9 µM | TGI [51]: > 100 µM | GI50 [52]: 6.83 µM and 6.77 µM | TGI [52]: > 100 µM | GI50 [53]: 12.8 µM and 13.1 µM | TGI [53]: 66.5 µM and > 91.1 µM | GI50 [54]: 15.3 µM | TGI [54]: 33.9 µM and 36.3 µM | GI50 [55]: 5.58 µM and 5.83 µM | TGI [55]: 48.7 µM and > 63.7 µM | GI50 [56]: 5.95 µM and 6.14 µM | TGI [56]: 71 µM and 57.2 µM | GI50 [57]: 11 µM and 9.57 µM | TGI [57]: 35.2 µM and 50.5 µM | GI50 [58]: 8.96 µM and 10.8 µM | TGI [58]: > 100 µM
